According to the supplement of paper PMC10307832:

Tests used:
Assay in all cases: relative viability (nuclei count vs DMSO), 5 days (fraction); higher = more cells survive
[1] = compound: C[C@@H](N)c1ccc(C(=O)Nc2ccnc3[nH]ccc23)cc1 + Nc1nc2[nH]cc(CCc3ccc(C(=O)N[C@@H](CCC(=O)O)C(=O)O)cc3)c2c(=O)[nH]1 [Pemetrexed] (partner 0.2 µM)
Summary of the method: (§1)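 Lung cancer cell lines in 1536-well plates were dosed by pin tool the day after seeding, either with one drug alone or with a fixed anchor-drug dose plus five library-drug doses (not always all listed) in √10 steps. After 5 days, cells were fixed and their nuclei stained in one step (final 0.05% Triton X-100, 1% formaldehyde, 1 ug/ml Hoechst), then counted on 4× images. Relative viability is the nuclei count in treated wells divided by that in vehicle wells. Values are medians of duplicate plates.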

[2] = compound: O[C@H]1CC[C@H](Nc2ncc3nc(Nc4c(F)cc(F)cc4F)n([C@H]4CCOC4)c3n2)CC1 [Tanzisertib] + CC(=O)Nc1cccc(-n2c(=O)n(C3CC3)c(=O)c3c(Nc4ccc(I)cc4F)n(C)c(=O)c(C)c32)c1 [Trametinib] (partner 0.02 µM)
Summary of the method: as §1

[3] = compound: C[C@@H](N)c1ccc(C(=O)Nc2ccnc3[nH]ccc23)cc1 + CS(=O)(=O)N1CCN(Cc2cc3nc(-c4cccc5[nH]ncc45)nc(N4CCOCC4)c3s2)CC1 [Pictilisib] (partner 1 µM)
Summary of the method: as §1

[4] = compound: C1CNCCC1C2=CC(=NN2)C3=CC=NC=C3 + O=C(c1cc(Cc2n[nH]c(=O)c3ccccc23)ccc1F)N1CCN(C(=O)C2CC2)CC1 [Olaparib] (partner 8 µM)
Summary of the method: as §1

| Cell Line | relative viability ([1]; first compound 0.1265 µM) | relative viability ([1]; first compound 0.4 µM) | relative viability ([1]; first compound 1.265 µM) | relative viability ([1]; first compound 4 µM) | relative viability ([2]; first compound 0.08 µM) | relative viability ([2]; first compound 0.253 µM) | relative viability ([2]; first compound 0.8 µM) | relative viability ([2]; first compound 2.53 µM) | relative viability ([2]; first compound 8 µM) | relative viability ([3]; first compound 0.04 µM) | relative viability ([3]; first compound 0.1265 µM) | relative viability ([3]; first compound 0.4 µM) | relative viability ([3]; first compound 1.265 µM) | relative viability ([3]; first compound 4 µM) | relative viability ([4]; first compound 0.08 µM) | relative viability ([4]; first compound 0.8 µM) | relative viability ([4]; first compound 2.53 µM) | relative viability ([4]; first compound 8 µM) | relative viability ([1]; first compound 0.04 µM) |
| --- | --- | --- | --- | --- | --- | --- | --- | --- | --- | --- | --- | --- | --- | --- | --- | --- | --- | --- | --- |
| LU99A | 0.189 | 0.191 | 0.23 | 0.188 | 0.632 | 0.573 | 0.591 | 0.531 | 0.559 | 0.307 | 0.319 | 0.385 | 0.297 | 0.324 | 0.257 | 0.259 | 0.269 | 0.314 | – |
| NCI-H1666 | 0.815 | 0.847 | 0.956 | 0.974 | 0.842 | 0.839 | 0.968 | 0.862 | 0.908 | 0.527 | 0.407 | 0.498 | 0.476 | 0.728 | 0.704 | 0.768 | 0.806 | 0.745 | 0.872 |
| NCI-H2170 | 0.249 | 0.271 | 0.277 | 0.263 | 0.989 | 0.965 | 0.927 | 0.926 | 0.874 | 0.337 | 0.319 | 0.295 | 0.204 | 0.266 | 0.606 | 0.632 | 0.626 | 0.609 | 0.284 |
| NCI-H522 | 1.09 | 0.956 | 1.05 | 1.01 | 0.766 | 0.535 | 0.688 | 0.826 | 0.69 | – | – | – | – | – | 0.63 | 0.712 | 0.726 | 0.803 | 0.842 |
| LCLC-97TM1 | 0.188 | 0.172 | 0.0771 | 0.21 | 0.236 | 0.227 | 0.234 | 0.172 | 0.172 | 0.257 | 0.176 | 0.259 | 0.106 | 0.421 | 0.341 | 0.399 | 0.429 | 0.326 | 0.207 |
| NCI-H1299 | – | – | – | – | – | – | – | – | – | 0.874 | 0.921 | 0.973 | 0.892 | 0.678 | 1.03 | 0.97 | 0.946 | 0.91 | – |
| NCI-H3122 | 0.216 | 0.203 | 0.21 | 0.222 | 0.262 | 0.201 | 0.273 | 0.245 | 0.237 | 0.72 | 0.721 | 0.716 | 0.687 | 0.728 | 0.571 | 0.6 | 0.583 | 0.61 | 0.202 |
| NCI-H1395 | 0.95 | 0.927 | – | 0.741 | 1.03 | 0.932 | 0.989 | 0.991 | 1.05 | 0.566 | 0.626 | 0.655 | – | 0.627 | 0.46 | 0.404 | 0.447 | 0.522 | 0.888 |
| NCI-H2009 | 0.975 | 0.943 | 0.866 | 0.765 | 0.316 | 0.274 | 0.274 | 0.247 | 0.21 | 0.77 | 0.768 | 0.886 | 0.22 | 0.753 | 0.683 | 0.749 | 0.648 | 0.728 | 0.984 |
| NCI-H1651 | 0.584 | 0.663 | 0.611 | 0.706 | 0.851 | 0.83 | 0.775 | 0.832 | 0.85 | 0.663 | 0.646 | 0.684 | 0.808 | 0.799 | 0.174 | 0.202 | 0.191 | 0.176 | 0.628 |
| Calu-6 | – | – | – | – | – | – | – | – | – | 0.952 | 0.988 | 0.854 | 0.928 | 0.75 | 0.565 | 0.6 | 0.62 | 0.497 | – |
| NCI-H1703 | – | – | – | – | – | – | – | – | – | 0.235 | 0.247 | 0.205 | 0.234 | 0.197 | 0.375 | 0.72 | 0.443 | 0.431 | – |
| NCI-H727 | – | – | – | – | 0.38 | 0.391 | 0.387 | 0.347 | 0.352 | 0.63 | 0.466 | 0.785 | 0.223 | 0.683 | 0.76 | 0.798 | 0.669 | 0.69 | – |
| NCI-H2342 | 0.803 | 0.792 | 0.847 | 0.794 | 0.791 | 0.733 | 0.804 | 0.863 | 0.938 | – | – | – | – | – | 0.419 | 0.388 | 0.486 | 0.491 | 0.781 |
| SW 900 | 0.478 | 0.475 | 0.5 | 0.474 | – | 0.868 | 0.857 | 0.552 | 0.737 | – | – | – | – | – | 1.02 | – | 0.868 | 0.861 | 0.465 |
| ABC-1 | – | – | – | – | – | – | – | – | – | 0.804 | 0.832 | 1.07 | 0.484 | 0.769 | 0.826 | 0.795 | 1.15 | 0.84 | – |
| NCI-H1648 | 0.933 | 1.03 | 1.12 | 1.28 | 0.492 | 0.459 | 0.51 | 0.5 | 0.482 | – | – | – | – | – | 1.02 | 0.817 | – | 1.3 | 1.12 |
| IA-LM | – | – | – | – | – | – | – | – | – | 0.456 | 0.484 | 0.752 | 0.676 | 0.835 | 1.02 | 0.916 | 0.87 | 0.846 | – |
| A549 | – | – | – | – | – | – | – | – | – | 0.596 | 0.526 | 0.597 | 0.525 | 0.428 | 0.345 | 0.303 | 0.435 | 0.367 | – |
